Patent publication US11510914B2, “Agent for inhibiting rise in intraneuronal calcium concentration” (Toray Industries, Inc., priority 2018, dated 2022)

Tested on: rat spinal dorsal root ganglion (DRG) neurons
Assay: High potassium-induced rise in intracellular calcium concentration of rat DRG neurons (Cal-520 AM fluorescence imaging)
Format: cell-based
Details: Rattus norvegicus, DRG neuron; compound 30 μmol/L; high potassium treatment (KCl 30 mmol/L); average of 60 to 250 cells per group; vehicle group = 0%; read-out: Inhibition rate (%) of a rise in intracellular calcium concentration
From the text: Example 4 Effect of the cyclic amine derivative (I) or a pharmacologically acceptable salt thereof on high potassium-induced rise in intracellular calcium concentration of rat spinal dorsal root ganglion (DRG) neurons:
The cyclic amine derivative (I) or a pharmacologically acceptable salt thereof was examined for its inhibitory effect on high potassium-induced rise in intracellular calcium concentration of DRG neurons.
The SD rats (4 to 6 weeks old, male; Charles River Laboratories Japan, Inc.) were anesthetized and euthanized by bloodletting from abdominal aorta. After incision of the dorsal part, the spinal column was excised and cooled in ice. The dorsal column was cut off, and the spinal cord was removed from the ventral side of the spinal column. Then, DRGs (L4 to L6) with nerve fibers were excised with tweezers. The excised DRGs were dipped in ice-cold Leibovitz's L-15 medium (Thermo Fisher Scientific), and the nerve fibers were removed under a stereoscopic microscope to separate DRG.
The separated DRGs were made fine slits with ophthalmic scissors, followed by incubation at 37° C. for 20 minutes with Collagenase A (Roche Molecular Systems). After centrifugation at 200×g for 5 minutes, the supernatant was removed, and 0.05% Trypsin-EDTA (Thermo Fisher Scientific) was added, followed by incubation at 37° C. for 5 minutes. DMEM (Thermo Fisher Scientific) containing 1% penicillin-streptomycin (Thermo Fisher Scientific) and 10% fetal bovine serum (Thermo Fisher Scientific) was added thereto. After centrifugation at 200×g for 5 minutes, the supernatant was removed. After the removal of the supernatant, Neurobasal-A Medium (Thermo Fisher Scientific) containing 1% penicillin-streptomycin and 2% B-27 (Thermo Fisher Scientific), which was prepared as a DRG nerve culture medium, was added. Then, the cells were dissociated by micropipetting. The dissociated cells were passed through a 70 μm cell strainer (Greiner) and centrifuged at 200×g for 5 minutes. After the centrifugation, the supernatant was removed, and the cells were suspended by the culture medium. This cell suspension was inoculated to a polylysine-coated 35 mm dish (Matsunami Glass Ind., Ltd.) coated in advance with laminin (Sigma-Aldrich), cultured overnight at 37° C. under 5% CO2, and then used in the measurement of change in intracellular calcium concentration.
Cal-520, AM(registered trademark) (AAT Bioquest) was used as a calcium fluorescent dye. The medium was removed from the cells cultured in the dish, and the cells were washed twice with a perfusate. Then, a Cal-520, AM solution adjusted to 4 μmol/L was added thereto, and the cells were cultured at 37° C. for 1 to 1.5 hours under 5% CO2. The perfusate was an aqueous solution containing NaCl (140 mmol/L), KCl (5 mmol/L), CaCl2)·2H2O (1.2 mmol/L), MgCl2.6H2O (2 mmol/L), D(+)-glucose (14 mmol/L) and HEPES (10 mmol/L), adjusted to pH 7.4. Then, the dish was washed by perfusion at 2 mL/min for 10 minutes.
Change in intracellular calcium concentration was measured by analyzing with analytical software, change in fluorescence intensity of the cells loaded with the calcium fluorescent dye in images taken under a confocal laser microscope system (Nikon Instech Co., Ltd.). The laser wavelength was 488 nm, and the images were acquired at intervals of 57 to 60 sheets per minute.
For the induction of neuronal excitation, a treatment with a high potassium solution (hereinafter, “high potassium treatment”) was performed to induce a rise in intracellular calcium concentration by the depolarization of cell membranes. The high potassium treatment and a treatment with the cyclic amine derivative (I) or a pharmacologically acceptable salt thereof (compounds 1 to 10, compound of Comparative Example 1 and compound of Comparative Example 2) (hereinafter, “compound treatment”) of the cells were performed by the perfusion and replacement of a solution. The perfusion rate was controlled to 2 mL/min using a tube pump. […]

| Compound | inhibition at 30 µM [%] |
| --- | --- |
| COCCn1ccnc1C(O)CC(=O)N1CCC(N(C)C)CC1 (stereo not shown) [Compound of Comparative Example 1, 1-(4-(dimethylamino)piperidin-1-yl)-3-(1-(2-methoxyethyl)-1H-imidazol-2-yl)-3-hydroxypropan-1-one, reference compound] | -3.3 |
| CN(C)C1CCN(C(=O)CC(O)c2nccn2CCC(F)(F)F)CC1 (stereo not shown) [Compound of Comparative Example 2, 1-(4-(dimethylamino)piperidin-1-yl)-3-(1-(3,3,3-trifluoropropyl)-1H-imidazol-2-yl)-3-hydroxypropan-1-one, reference compound] | -1.1 |
| CN(C)C1CCN(C(=O)CC(O)c2ncc(Cl)n2C)CC1 (stereo not shown) [Compound 9, 3-(5-chloro-1-methyl-1H-imidazol-2-yl)-1-(4-(dimethylamino)piperidin-1-yl)-3-hydroxypropan-1-one] | 7.1 |
| CN1CCN(C2CCN(C(=O)CC(O)c3nccn3C)CC2)CC1 (stereo not shown) [Compound 6, 3-hydroxy-3-(1-methyl-1H-imidazol-2-yl)-1-(4-(4-methylpipzerazin-1-yl)piperidin-1-yl)propan-1-one] | 23.3 |
| CN(C)[C@@H]1CCCN(C(=O)CC(O)c2nccn2C)C1 (stereo partly shown) [Compound 5] | 39 |
| CC(C)n1ccnc1C(O)CC(=O)N1CCC(N(C)C)CC1 (stereo not shown) [Compound 10, 1-(4-(dimethylamino)piperidin-1-yl)-3-(1-isopropyl-1H-imidazol-2-yl)-3-hydroxypropan-1-one] | 5.9 |
| CCCn1ccnc1C(O)CC(=O)N1CCC(N(C)C)CC1 (stereo not shown) [Compound 7, 1-(4-(dimethylamino)piperidin-1-yl)-3-(1-propyl-1H-imidazol-2-yl)-3-hydroxypropan-1-one] | 15.4 |

Same assay, conditions: Rattus norvegicus, DRG neuron; compound 30 μmol/L; high potassium treatment (KCl 32.5 mmol/L or 30 mmol/L); average of 106 to 262 cells per group; vehicle group = 0%; read-out: Inhibition rate (%) of a rise in intracellular calcium concentration

| Compound | inhibition at 30 µM [%] |
| --- | --- |
| CCn1ccnc1C(O)CC(=O)N1CCC(N(C)C)CC1 (stereo not shown) [Compound 1, 1-(4-(dimethylamino)piperidin-1-yl)-3-(1-ethyl-1H-imidazol-2-yl)-3-hydroxypropan-1-one] | 35.5 |
| CN(C)C1CCN(C(=O)CCc2nccn2C)CC1 [Compound 4, 1-(4-(dimethylamino)piperidin-1-yl)-3-(1-methyl-1H-imidazol-2-yl)propan-1-onesulfatemonohydrate] | 11.9 |
| CN(C)C1CCN(C(=O)CC(O)c2nccn2CC(F)(F)F)CC1 (stereo not shown) [Compound 3, 1-(4-(dimethylamino)piperidin-1-yl)-3-hydroxy-3-(1-(2,2,2-trifluoroethyl)-1H-imidazol-2-yl)propan-1-one] | 17.8 |
| CN(C)C1CCN(C(=O)C[C@H](O)c2nccn2C)CC1 [Compound 2, (S)-1-(4-(dimethylamino)piperidin-1-yl)-3-hydroxy-3-(1-methyl-1H-imidazol-2-yl)propan-1-one] | 19.3 |

Same assay, conditions: compound 30 μmol/L; KCl 30 mmol/L; compared to vehicle treatment group; Table 5 experiment

| Compound | Inhibition of high potassium-induced rise in intracellular calcium concentration, in words |
| --- | --- |
| COCCn1ccnc1C(O)CC(=O)N1CCC(N(C)C)CC1 (stereo not shown) [Compound of Comparative Example 1, 1-(4-(dimethylamino)piperidin-1-yl)-3-(1-(2-methoxyethyl)-1H-imidazol-2-yl)-3-hydroxypropan-1-one, reference compound] | not inhibited |
| CN(C)C1CCN(C(=O)CC(O)c2nccn2CCC(F)(F)F)CC1 (stereo not shown) [Compound of Comparative Example 2, 1-(4-(dimethylamino)piperidin-1-yl)-3-(1-(3,3,3-trifluoropropyl)-1H-imidazol-2-yl)-3-hydroxypropan-1-one, reference compound] | not inhibited |
